Laboratory results published in patent publication US6518296B1, “Substituted 3-thiocarbamoylpyrazoles” (Bayer Aktiengesellschaft, priority 1998, dated 2003).

Assays:
[1] = test system: green peach aphid (Myzus persicae); assay: Myzus test; format: in vivo; conditions: active compound concentration of 0.1%; after 6 days; dipped cabbage leaves
Procedure: Solvent: 7 parts by weight of dimethylformamide
Emulsifier: 1 part by weight of alkylaryl polyglycol ether
To produce a suitable preparation of active compound, 1 part by weight of active compound is mixed with the stated amounts of solvent and emulsifier, and the concentrate is diluted with water to the desired concentration.
Cabbage leaves (Brassica oleracea) which are heavily infested by the green peach aphid (Mycus persicae) are treated by being dipped into the preparation of active compound of the desired concentration.
After the desired period of time, the kill in % is determined. 100% means that all aphids have been killed; 0% means that none of the aphids have been killed.

[2] = test system: Boophilus microplus resistant/SP-resistant Parkhurst strain; assay: Test with Boophilus microplus resistant/SP-resistant Parkhurst strain (injection, inhibition of oviposition); format: in vivo; conditions: 20 μg/animal; injected into the abdomen; after 7 days
Procedure: Test with Boophilus microplus resistantlSP-resistant Parkhurst strain
(§1) Test animals: Adult females which have sucked themselves full
(§2) Solvent: Dimethyl sulphoxide
20 mg of active compound are dissolved in 1 ml of dimethyl sulphoxide, while dilute concentrations are prepared by dilution with the same solvent.
The test is carried out in 5 replications. […] of the solutions is injected into the abdomen, the animals are transferred into dishes and kept in a climatized room. After 7 days, the activity control is carried out for inhibition of ovi position. An activity of 100% means that none of the ticks has deposited eggs.

[3] = test system: Boophilus microplus resistant/SP-resistant Parkhurst strain; assay: Test with Boophilus microplus resistant/SP-resistant Parkhurst strain (dip test, kill); format: in vivo; conditions: active compound concentration of 100 ppm; dipped for 1 minute
Procedure: Test with Boophilus microplus resistant/SP-resistant Parkhurst strain
as §1, §2
(§3) 20 mg of active compound are dissolved in 1 ml of dimethyl sulphoxide, while dilute concentrations are prepared by dilution with dist. H2O.
10 adult Boophilus microplus res. are dipped for 1 minute into the preparation of active compound to be tested. The animals are transferred into plastic beakers and kept in a climatized room, and the kill rate is then determined.
100% means that all ticks have been killed; 0% means that none of the ticks have been killed.

Lucilia cuprina larvae = assay: Blowfly larvae test/development-inhibitory action; format: in vivo; conditions: active compound concentration of 100 ppm, read-out: activity (development-inhibitory action; 100% means that no flies have hatched)
Procedure: Blowfly larvae test/development-inhibitory action
Test animals: Lucilia cuprina larvae
as §2, §3
About 20 Lucilia cuprina larvae are introduced into a test tube containing about 1 cm^3 of horse meat and 0.5 ml of the preparation of active compound. After 24 and 48 hours, the activity of the preparation of active compound is determined. The test tubes are transferred into beakers whose bottom is covered with sand. After a further 2 days, the test tubes are removed and the pupae are counted.
The activity of the active compound preparation is assessed by the number of flies which have hatched after 1.5 times the development time of an untreated control. 100% means that no flies have hatched; 0% means that all flies have hatched normally.

CCSc1c(C(N)=S)nn(-c2c(Cl)cc(C(F)(F)F)cc2Cl)c1N [Preparation Example 1, 5-amino-4-ethylthio-l-(2,6-dichloro-4-trifluoro-methylphenyl)-3-thiocarbamoyl-pyrazole]
kill [1]: 90% | activity (inhibition of oviposition) [2]: 100% | melting point: 101 °C | activity (kill rate of ticks) [3]: 100% | inhibition at 100 ppm (Lucilia cuprina larvae): 100%
